The series is described as follows: Profiling and quantitative assessment of radiolabelled metabolites in human subjects after a single oral dose of [14C]-(+)-(2S, 3S)-3-(2-methoxy-5-trifluoromethoxybenzylamino)-2-phenyl-piperidine. The conditions noted are these: single 30 mg (free base) oral dose of [14C] parent compound, HPLC radioprofiling of pooled serum (1-24 h). The series is classed as in vivo. The method, then: Six healthy male human subjects (4 extensive metabolizers (EM) of CYP2D6 and 2 poor metabolizers (PM) of CYP2D6) were administered in a single 30 mg (free base) oral dose of (+)-(2S, 3S)-3-(2-methoxy-5-trifluoromethoxybenzylamino)-2-phenyl-piperidine containing 100 *Ci of [14C]-(+)-(2S, 3S)-3-(2-methoxy-5-trifluoromethoxybenzylamino)-2-phenyl-piperidine (Lot # 49800-59-3, specific activity 1.22 mCi/mmol, radio purity of >99%). Blood samples were collected into red-top tubes (no preservatives or anticoagulant or serum separator) at the following time points: 1, 4, 8, 12, and 24 hours post dose. The blood samples were centrifuged at 4° C. and serum was transferred to clean tubes.
a) Serum samples were pooled by human subject separately (3 ml from each sampling time, total of 15 ml) and aliquots of 1.5 mL from each pool were extracted with 5 mL of acetonitrile. The mixtures were vortex mixed for 5 minutes and centrifuged at 3500 rpm for 5 minutes to remove the precipitated proteins. Supernatants were combined and a small aliquot of supernatant was counted. Approximately 96% (average of all subjects) of the radioactivity was recovered in the supernatant. The supernatants were evaporated under N^2 in a turbovap at room temperature. […]
Measuring the radioactivity in the individual peaks separated on the HPLC column using a -RAM detector allowed the quantification of each metabolite. […]

The values below come from patent US20050261342A1, “Metabolites of (+)-(2S,3S)-3(2-methoxy-5- trifluoromethoxybenzylamino)-2-phenyl-piperidine” (Pfizer Inc., priority 2004, published 2005).

`O=C(O)c1cc(OC(F)(F)F)ccc1O` [5-trifluoromethoxy salicylic acid, 2-Hydroxy-5-trifluoromethoxy-benzoic acid]: the “accounted for % of the total radioactivity” value is, setting by setting: (EM subjects (extensive metabolizers of CYP2D6)) “approximately 56%”; (PM subjects (poor metabolizers of CYP2D6)) ~29%.
